Test results published in the NIST ThermoML archive (doi:10.1021/je034093m).
Where “and” joins values, the source holds several entries; their conditions need not be identical. Identical values can stand only once. Numbers after ± are expanded uncertainties.

Details: Capillary rise

CCC [propane]
Details | surface tension liquid-gas
253.08 K | 12.98 ± 0.16 mN/m
254.8 K | 12.7 ± 0.16 mN/m and 12.69 ± 0.16 mN/m
256.89 K | 12.38 ± 0.16 mN/m
258.68 K | 12.21 ± 0.16 mN/m and 12.2 ± 0.16 mN/m
260.71 K | 11.94 ± 0.16 mN/m and 11.97 ± 0.16 mN/m
262.7 K | 11.56 ± 0.16 mN/m and 11.58 ± 0.16 mN/m
265.09 K | 11.31 ± 0.16 mN/m and 11.32 ± 0.16 mN/m
267.09 K | 11.06 ± 0.16 mN/m and 11.05 ± 0.16 mN/m
268.88 K | 10.81 ± 0.16 mN/m
270.72 K | 10.52 ± 0.16 mN/m and 10.53 ± 0.16 mN/m
273.2 K | 10.17 ± 0.16 mN/m
275.38 K | 9.97 ± 0.16 mN/m
277.43 K | 9.71 ± 0.16 mN/m
279.39 K | 9.4 ± 0.16 mN/m
281.48 K | 9.14 ± 0.16 mN/m and 9.15 ± 0.16 mN/m
289.27 K | 8.14 ± 0.16 mN/m and 8.15 ± 0.16 mN/m
293.85 K | 7.49 ± 0.16 mN/m
295.73 K | 7.23 ± 0.16 mN/m
297.4 K | 7.04 ± 0.16 mN/m
299.41 K | 6.85 ± 0.16 mN/m and 6.87 ± 0.16 mN/m
301.45 K | 6.62 ± 0.16 mN/m
303.54 K | 6.33 ± 0.16 mN/m and 6.34 ± 0.16 mN/m
305.17 K | 6.21 ± 0.16 mN/m and 6.22 ± 0.16 mN/m
308.01 K | 5.86 ± 0.16 mN/m
310.73 K | 5.55 ± 0.16 mN/m
314.39 K | 5.06 ± 0.16 mN/m
315.71 K | 4.85 ± 0.16 mN/m and 4.84 ± 0.16 mN/m
317.64 K | 4.62 ± 0.16 mN/m and 4.63 ± 0.16 mN/m
319.43 K | 4.42 ± 0.16 mN/m
321.41 K | 4.25 ± 0.16 mN/m and 4.26 ± 0.16 mN/m
323.34 K | 4.01 ± 0.16 mN/m and 4.02 ± 0.16 mN/m
325.32 K | 3.8 ± 0.16 mN/m and 3.81 ± 0.16 mN/m
327.4 K | 3.6 ± 0.16 mN/m and 3.62 ± 0.16 mN/m
329.79 K | 3.32 ± 0.16 mN/m and 3.31 ± 0.16 mN/m
331.79 K | 3.12 ± 0.16 mN/m and 3.13 ± 0.16 mN/m
333.3 K | 2.94 ± 0.15 mN/m and 2.95 ± 0.15 mN/m

CC(C)C [2-methylpropane]
Details | surface tension liquid-gas
255.02 K | 14.85 ± 0.16 mN/m
256.94 K | 14.69 ± 0.16 mN/m
258.83 K | 14.36 ± 0.16 mN/m and 14.37 ± 0.16 mN/m
261.09 K | 14.17 ± 0.16 mN/m
262.95 K | 14.02 ± 0.16 mN/m and 14.03 ± 0.16 mN/m
264.86 K | 13.7 ± 0.16 mN/m and 13.72 ± 0.16 mN/m
267.09 K | 13.46 ± 0.16 mN/m and 13.44 ± 0.16 mN/m
268.86 K | 13.16 ± 0.16 mN/m
270.9 K | 12.95 ± 0.16 mN/m and 12.97 ± 0.16 mN/m
273.38 K | 12.68 ± 0.16 mN/m
275.39 K | 12.57 ± 0.16 mN/m and 12.6 ± 0.16 mN/m
277.16 K | 12.29 ± 0.16 mN/m
279.34 K | 12.06 ± 0.16 mN/m
281.3 K | 11.77 ± 0.16 mN/m and 11.75 ± 0.16 mN/m
283.29 K | 11.62 ± 0.16 mN/m
285.43 K | 11.28 ± 0.16 mN/m
287.5 K | 11.14 ± 0.16 mN/m and 11.13 ± 0.16 mN/m
289.31 K | 10.86 ± 0.16 mN/m
291.65 K | 10.74 ± 0.16 mN/m and 10.72 ± 0.16 mN/m
293.66 K | 10.5 ± 0.16 mN/m
295.75 K | 10.28 ± 0.16 mN/m
297.83 K | 10.01 ± 0.16 mN/m and 10.05 ± 0.16 mN/m
299.48 K | 9.84 ± 0.16 mN/m
301.43 K | 9.57 ± 0.16 mN/m and 9.6 ± 0.16 mN/m
303.91 K | 9.37 ± 0.16 mN/m and 9.38 ± 0.16 mN/m
305.75 K | 9.14 ± 0.16 mN/m
307.41 K | 8.98 ± 0.16 mN/m
309.49 K | 8.75 ± 0.16 mN/m and 8.77 ± 0.16 mN/m
311.81 K | 8.52 ± 0.16 mN/m and 8.51 ± 0.16 mN/m
313.49 K | 8.29 ± 0.16 mN/m and 8.31 ± 0.16 mN/m
315.82 K | 8.05 ± 0.16 mN/m and 8.09 ± 0.16 mN/m
317.75 K | 7.9 ± 0.16 mN/m and 7.91 ± 0.16 mN/m
319.32 K | 7.69 ± 0.16 mN/m and 7.68 ± 0.16 mN/m
321.96 K | 7.45 ± 0.16 mN/m and 7.46 ± 0.16 mN/m
323.71 K | 7.25 ± 0.16 mN/m and 7.22 ± 0.16 mN/m
325.37 K | 7.02 ± 0.16 mN/m and 7.04 ± 0.16 mN/m
327.8 K | 6.79 ± 0.16 mN/m and 6.81 ± 0.16 mN/m
329.49 K | 6.71 ± 0.16 mN/m
331.68 K | 6.42 ± 0.16 mN/m
333.28 K | 6.29 ± 0.16 mN/m
